Assay [1] relates to C. elegans. Kind of assay: Lifespan assay (Automated Lifespan Machine). The class given is in vivo. An excerpt: N2 (Bristol) wild type strain has been used in this application.
To prevent chemical modification or metabolism of the test article by the food bacteria, worms were fed on a lawn of UV-killed bacteria (UV-i bacteria). An overnight culture of E. coli strain WP-2 was pelleted, washed, filtered, and irradiated. A suspension of UV-i bacteria was spotted on NGM agar containing Streptomycin to inhibit the growth of contaminating bacteria. The quantity and distribution of food bacteria were calibrated to ensure adequate access to food for the duration of assay while maintaining visibility of the worms.
The ALM used herein is based on the Caenorhabditis elegans lifespan machine published by Stroustrup et. al (Stroustrup, N. et al. The Caenorhabditis elegans Lifespan Machine. Nat Methods 10, 665-670 (2013)), with proprietary modifications to improve temperature stability and image acquisition. The scanner unit consists of a modified EPSON V850 and images are processed and analyzed using the ALM software (see id.). The machine time-of-death calls are trained and validated using the “storyboarding” feature of the ALM software.
The lifespan assay was designed and performed according to published and validated methods (Amrit, F. R. G., Ratnappan, R., Keith, S. A. & Ghazi, A. The C. elegans lifespan assay toolkit. Methods 68, 465-475 (2014)), using a modified version of the Automated Lifespan Machine (Stroustrup, N. et al. The Caenorhabditis elegans Lifespan Machine. Nat Methods 10, 665-670 (2013)). Worms were age synchronized by bleaching and eggs were plated directly onto NGM agar seeded with UV-i bacteria (Day 1, hatch). On Day 3, when the worms had reached the late L4 stage, they were transferred to dishes containing 100 μM 5-Fluorodeoxyuridine (FUdR) to suppress progeny. On day 5, the worms were washed off the dishes, and 30-50 worms were plated on each scanner dish. Plates were immobilized inverted on the bed of an Automated Lifespan Machine which scanned two images per hour of the plates continuously for the next 40 days.
Time of death calls exported from the ALM software was analyzed and plotted using the Lifelines software package developed by Cam Davidson-Pilon et. al (Lifelines Version: v0.25.9). Additional analysis performed using the OASIS2 analysis software (Seong Kyu Han et. al. OASIS 2: online application for survival analysis 2 with features for the analysis of maximal lifespan and healthspan in aging research. Oncotarget. 7:56147-56152. (2016)).
The lifespan assay was initiated by expanding all replicate groups to more than 1000 worms, then synchronizing by bleaching and allowing larval worms to hatch and arrest. To eliminate the effect of bacterial metabolism and growth on lifespan of C. elegans (wild type, and not over express β-amyloid peptide) worms, synchronized worms were only exposed to dead food bacteria. To suppress progeny, worms were transferred to media containing 5-Fluorodeoxyuridine (FUdR) within 54-60 hours post-plating. Worms were inspected 24 and 48 hours after this transfer to confirm infertility. Finally, the worms were inspected for general health and morphology before transferring to scanner plates. The scanner plates were incubated for an additional 2 days and inspected again before loading onto scanners.
To obtain high-resolution lifespan data and eliminate confounding factors such as worm handling and operator bias, lifespan data was collected using an Automated Lifespan Machine (ALM) (Stroustrup, N. et al. The Caenorhabditis elegans Lifespan Machine. Nat Methods 10, 665-670 (2013)). Three biological replicates, derived from synchronizing three independently maintained lines of N2 worms, were distributed across instruments. Images of the worms were then collected for the next 35 days with no interruption or manipulations. Some plates were excluded after quality checks, but plate number and worm count for all replicates exceeded the threshold for statistical significance (Table 1, row 1).

Assay [2] relates to C. elegans. Kind of assay: Movement and healthspan analysis (worm activity, morphology, circularity). Particulars: 0.1 mM. In kind it is in vivo. An excerpt:
Worm movement was tracked from the images acquired by the ALM during the lifespan assay. Worm size and movement features were extracted and analyzed using custom software.
To measure healthspan, active worms were identified using the ALM scanner images from the lifespan assay (see Example 2). The worms' spatial location on the plate and their morphology were quantified throughout their lifespan to assess healthspan.
Worm Activity serves as a proxy for animal health. Changes in spatial distribution of the worms between time points is used to derive aggregate movement for the population over time. Worm Activity is described by two complementary measurements of aggregate movement, Centroid Distance and Spatial Distribution: • Centroid Distance calculates a geometric center for each individual worm, and then measures the minimum collective distance that a group of worms moved between time points. It achieves measurement of the changes in spatial distribution between time-points. • Spatial Distribution uses changes in worm contours between time points to measure the changes in the spatial distribution of the worms' bodies. The normalized distribution of these distances in the population provides a measure of how much the group of worms altered their positions and posture on the plate between two time-points.
For both of these Activity metrics, a plot with higher numbers indicates good health, and all measures are normalized to fall between 0 and 1.
Worm morphology is measured from the worm contours detected in the images. In the process of aging, worms become shorter and stouter over time and their shape is an indicator of their overall health and biological age. The Length is calculated from the central spline fitted to the worm contour and Width is measured from each worm's widest point. The worms' posture also changes with age as they lose the ability to maintain an elongated position. Average Circularity measures how close the shape and posture come to being enclosed by a circle.
Each of these measures are obtained by averaging data for all active worms detected on a plate, then averaging across different replicate plates of the same condition. All measurements are based on worms that are still alive and moving at the time of quantification. All measures start when worms are placed on the scanner at day 3 of adulthood.
Average Circularity. The Average Circularity Assay indicates worm heath by describing how closely the shape and posture of the worms is enclosed within a circle. Healthy, active worms maintain an elongated, albeit sinusoidal posture. As unhealthy and aged worms lose muscle function, they increasingly adopt a curled, bunched, or folded state in addition to a stout and wrinkled morphology.

The structures appear in SMILES notation. Entries after “also recorded” stand apart in the source; their conditions may differ.

For `Oc1ccc(C=Cc2cc(O)cc(O)c2)cc1` [Resveratrol, reference compound], in the assay with C. elegans [1] (0.1 mM), the “Age in days at 25% mortality” value stood at 21.46 days, the “Age in days at 50% mortality” value is on record as 27.29 days, the “Age in days at 75% mortality” value was determined as 31.13 days and the “Age in days at 90% mortality” value was 35.89 days. Moreover, the “Age in days at 100% mortality” value in the assay with C. elegans [1] (0.1 mM) came to 40.85 days. In addition, the “Lifespan / survival relative to vehicle control (in words)” value with C. elegans [1] (0.1 mM positive control) was “significant positive increase in lifespan; also recorded: higher survival than the vehicle control at all timepoints”. Moreover, the Maximum lifespan with C. elegans [1] (0.1 mM, 95th percentile of lifespans) is on record as 37.3 days. The compound also came in with a Median lifespan in the assay on C. elegans [1] (0.1 mM, N2 wild type, day 0 = day 1 of adulthood) of 27.3 days. In the assay on C. elegans [1] (0.1 mM, area under survival curve), the Mean lifespan is recorded as 26.3 days. Moreover, the “Average circularity / posture (FIG. 7)” value in the assay on C. elegans [2] (late life) is on record as “maintained a more elongated posture well into late life”. Also, the “Aggregate movement (Centroid Distance and Spatial Distribution, FIGS. 5A-5B)” value in the assay on C. elegans [2] (over the duration of lifespan) is recorded as “more vigorous movement”. The “Worm morphology (size, FIGS. 6A-6C)” value with C. elegans [2] (over the lifespan) is “slightly smaller earlier in the assay but remained larger in the late life stages”.
